In assay [1] the target is 3-oxoacyl-[acyl-carrier-protein] reductase (Drosophila melanogaster) (UniProt B7Z001). As to the kind of experiment: Inhibition of FASN in one day old PINK1 mutant containing Drosophila melanogaster assessed as rescue of defective flight at 0.1 to 300 uM dosed with food incubated for 72 hrs. In kind it is organism-based.
Assay [2] addresses Fatty acid synthase (Mus musculus) (UniProt P19096). The assay can be described thus: Inhibition of FASN in PINK1 (-/-) MEF assessed as rescue of mitochondrial dysfunction by measuring ATP levels by luminometry. The format is cell-based.
For assay [3], the target named is 3-oxoacyl-[acyl-carrier-protein] reductase (Drosophila melanogaster) (UniProt B7Z001). As to the kind of experiment: Inhibition of FASN in one day old PINK1 mutant containing Drosophila melanogaster assessed as rescue of defective flight at 100 to 300 uM dosed with food incubated for 72 hrs. In kind it is organism-based.

Each structure is given as a SMILES string. Active and inactive are the calls of the source. The rule behind the calls is not given here.

Chain of 3-oxoacyl-[acyl-carrier-protein] reductase (Drosophila melanogaster) (B7Z001 as listed by the source): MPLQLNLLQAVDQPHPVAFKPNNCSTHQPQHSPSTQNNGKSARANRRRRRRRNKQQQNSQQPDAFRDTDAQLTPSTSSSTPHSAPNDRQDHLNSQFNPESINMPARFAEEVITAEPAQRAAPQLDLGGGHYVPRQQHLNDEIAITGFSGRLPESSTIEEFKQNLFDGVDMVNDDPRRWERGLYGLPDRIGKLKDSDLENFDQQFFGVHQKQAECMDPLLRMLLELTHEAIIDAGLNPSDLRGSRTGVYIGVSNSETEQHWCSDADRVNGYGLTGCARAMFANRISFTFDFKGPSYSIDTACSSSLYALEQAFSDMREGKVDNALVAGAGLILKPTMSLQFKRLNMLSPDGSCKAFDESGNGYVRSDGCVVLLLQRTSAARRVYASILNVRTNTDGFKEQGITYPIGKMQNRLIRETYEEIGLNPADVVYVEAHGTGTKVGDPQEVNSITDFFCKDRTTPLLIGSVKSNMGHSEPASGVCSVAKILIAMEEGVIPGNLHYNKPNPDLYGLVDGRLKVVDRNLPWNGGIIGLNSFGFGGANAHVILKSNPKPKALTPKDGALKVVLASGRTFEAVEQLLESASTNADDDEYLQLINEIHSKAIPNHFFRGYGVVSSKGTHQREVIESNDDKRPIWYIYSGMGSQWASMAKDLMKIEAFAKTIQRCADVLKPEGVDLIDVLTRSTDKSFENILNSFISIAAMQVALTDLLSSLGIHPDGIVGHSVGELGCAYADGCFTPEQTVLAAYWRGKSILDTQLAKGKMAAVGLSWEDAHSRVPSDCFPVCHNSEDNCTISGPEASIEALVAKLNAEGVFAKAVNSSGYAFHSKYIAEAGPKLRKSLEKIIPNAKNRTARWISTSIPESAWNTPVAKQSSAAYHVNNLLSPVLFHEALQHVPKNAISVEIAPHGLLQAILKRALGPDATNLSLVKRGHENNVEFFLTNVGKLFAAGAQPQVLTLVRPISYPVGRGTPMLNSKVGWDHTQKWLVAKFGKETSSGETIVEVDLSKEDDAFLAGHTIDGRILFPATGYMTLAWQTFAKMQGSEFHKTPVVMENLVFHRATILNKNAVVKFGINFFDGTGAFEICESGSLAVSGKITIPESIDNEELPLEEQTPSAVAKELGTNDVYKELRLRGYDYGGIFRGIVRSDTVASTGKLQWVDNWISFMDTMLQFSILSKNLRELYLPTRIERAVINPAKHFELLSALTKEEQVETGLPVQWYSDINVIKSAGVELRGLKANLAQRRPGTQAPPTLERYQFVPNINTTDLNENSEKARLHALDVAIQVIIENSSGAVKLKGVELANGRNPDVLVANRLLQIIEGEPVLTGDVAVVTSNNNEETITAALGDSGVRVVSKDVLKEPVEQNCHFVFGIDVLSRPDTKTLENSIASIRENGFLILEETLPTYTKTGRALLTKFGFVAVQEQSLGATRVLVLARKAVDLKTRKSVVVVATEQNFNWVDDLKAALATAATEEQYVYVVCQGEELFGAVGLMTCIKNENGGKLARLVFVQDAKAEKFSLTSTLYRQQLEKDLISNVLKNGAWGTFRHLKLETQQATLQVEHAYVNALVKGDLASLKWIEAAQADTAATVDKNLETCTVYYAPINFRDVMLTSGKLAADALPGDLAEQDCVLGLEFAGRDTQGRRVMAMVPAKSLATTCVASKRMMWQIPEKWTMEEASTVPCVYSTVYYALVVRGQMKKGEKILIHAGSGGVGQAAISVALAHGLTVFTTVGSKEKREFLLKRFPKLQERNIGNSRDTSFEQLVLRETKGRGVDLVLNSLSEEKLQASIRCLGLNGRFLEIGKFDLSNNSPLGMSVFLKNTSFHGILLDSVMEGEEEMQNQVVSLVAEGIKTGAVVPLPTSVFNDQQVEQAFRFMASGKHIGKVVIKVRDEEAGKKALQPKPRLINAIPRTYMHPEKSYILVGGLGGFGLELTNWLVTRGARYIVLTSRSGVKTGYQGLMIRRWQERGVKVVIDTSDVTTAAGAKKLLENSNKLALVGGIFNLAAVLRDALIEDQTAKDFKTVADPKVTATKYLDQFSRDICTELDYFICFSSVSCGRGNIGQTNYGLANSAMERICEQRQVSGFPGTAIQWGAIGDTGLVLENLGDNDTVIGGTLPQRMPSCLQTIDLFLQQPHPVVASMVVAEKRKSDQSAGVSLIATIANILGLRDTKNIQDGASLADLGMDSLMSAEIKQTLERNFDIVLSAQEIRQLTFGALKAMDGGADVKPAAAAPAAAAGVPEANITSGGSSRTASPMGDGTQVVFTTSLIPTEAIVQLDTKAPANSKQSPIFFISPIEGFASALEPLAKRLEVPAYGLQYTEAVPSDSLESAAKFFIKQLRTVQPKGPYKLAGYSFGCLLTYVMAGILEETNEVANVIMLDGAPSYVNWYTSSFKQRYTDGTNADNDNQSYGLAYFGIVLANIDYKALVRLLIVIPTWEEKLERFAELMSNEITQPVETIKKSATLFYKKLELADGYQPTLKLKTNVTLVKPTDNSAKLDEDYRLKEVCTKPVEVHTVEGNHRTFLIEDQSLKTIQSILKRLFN
Chain of Fatty acid synthase (Mus musculus) (P19096 whole entry): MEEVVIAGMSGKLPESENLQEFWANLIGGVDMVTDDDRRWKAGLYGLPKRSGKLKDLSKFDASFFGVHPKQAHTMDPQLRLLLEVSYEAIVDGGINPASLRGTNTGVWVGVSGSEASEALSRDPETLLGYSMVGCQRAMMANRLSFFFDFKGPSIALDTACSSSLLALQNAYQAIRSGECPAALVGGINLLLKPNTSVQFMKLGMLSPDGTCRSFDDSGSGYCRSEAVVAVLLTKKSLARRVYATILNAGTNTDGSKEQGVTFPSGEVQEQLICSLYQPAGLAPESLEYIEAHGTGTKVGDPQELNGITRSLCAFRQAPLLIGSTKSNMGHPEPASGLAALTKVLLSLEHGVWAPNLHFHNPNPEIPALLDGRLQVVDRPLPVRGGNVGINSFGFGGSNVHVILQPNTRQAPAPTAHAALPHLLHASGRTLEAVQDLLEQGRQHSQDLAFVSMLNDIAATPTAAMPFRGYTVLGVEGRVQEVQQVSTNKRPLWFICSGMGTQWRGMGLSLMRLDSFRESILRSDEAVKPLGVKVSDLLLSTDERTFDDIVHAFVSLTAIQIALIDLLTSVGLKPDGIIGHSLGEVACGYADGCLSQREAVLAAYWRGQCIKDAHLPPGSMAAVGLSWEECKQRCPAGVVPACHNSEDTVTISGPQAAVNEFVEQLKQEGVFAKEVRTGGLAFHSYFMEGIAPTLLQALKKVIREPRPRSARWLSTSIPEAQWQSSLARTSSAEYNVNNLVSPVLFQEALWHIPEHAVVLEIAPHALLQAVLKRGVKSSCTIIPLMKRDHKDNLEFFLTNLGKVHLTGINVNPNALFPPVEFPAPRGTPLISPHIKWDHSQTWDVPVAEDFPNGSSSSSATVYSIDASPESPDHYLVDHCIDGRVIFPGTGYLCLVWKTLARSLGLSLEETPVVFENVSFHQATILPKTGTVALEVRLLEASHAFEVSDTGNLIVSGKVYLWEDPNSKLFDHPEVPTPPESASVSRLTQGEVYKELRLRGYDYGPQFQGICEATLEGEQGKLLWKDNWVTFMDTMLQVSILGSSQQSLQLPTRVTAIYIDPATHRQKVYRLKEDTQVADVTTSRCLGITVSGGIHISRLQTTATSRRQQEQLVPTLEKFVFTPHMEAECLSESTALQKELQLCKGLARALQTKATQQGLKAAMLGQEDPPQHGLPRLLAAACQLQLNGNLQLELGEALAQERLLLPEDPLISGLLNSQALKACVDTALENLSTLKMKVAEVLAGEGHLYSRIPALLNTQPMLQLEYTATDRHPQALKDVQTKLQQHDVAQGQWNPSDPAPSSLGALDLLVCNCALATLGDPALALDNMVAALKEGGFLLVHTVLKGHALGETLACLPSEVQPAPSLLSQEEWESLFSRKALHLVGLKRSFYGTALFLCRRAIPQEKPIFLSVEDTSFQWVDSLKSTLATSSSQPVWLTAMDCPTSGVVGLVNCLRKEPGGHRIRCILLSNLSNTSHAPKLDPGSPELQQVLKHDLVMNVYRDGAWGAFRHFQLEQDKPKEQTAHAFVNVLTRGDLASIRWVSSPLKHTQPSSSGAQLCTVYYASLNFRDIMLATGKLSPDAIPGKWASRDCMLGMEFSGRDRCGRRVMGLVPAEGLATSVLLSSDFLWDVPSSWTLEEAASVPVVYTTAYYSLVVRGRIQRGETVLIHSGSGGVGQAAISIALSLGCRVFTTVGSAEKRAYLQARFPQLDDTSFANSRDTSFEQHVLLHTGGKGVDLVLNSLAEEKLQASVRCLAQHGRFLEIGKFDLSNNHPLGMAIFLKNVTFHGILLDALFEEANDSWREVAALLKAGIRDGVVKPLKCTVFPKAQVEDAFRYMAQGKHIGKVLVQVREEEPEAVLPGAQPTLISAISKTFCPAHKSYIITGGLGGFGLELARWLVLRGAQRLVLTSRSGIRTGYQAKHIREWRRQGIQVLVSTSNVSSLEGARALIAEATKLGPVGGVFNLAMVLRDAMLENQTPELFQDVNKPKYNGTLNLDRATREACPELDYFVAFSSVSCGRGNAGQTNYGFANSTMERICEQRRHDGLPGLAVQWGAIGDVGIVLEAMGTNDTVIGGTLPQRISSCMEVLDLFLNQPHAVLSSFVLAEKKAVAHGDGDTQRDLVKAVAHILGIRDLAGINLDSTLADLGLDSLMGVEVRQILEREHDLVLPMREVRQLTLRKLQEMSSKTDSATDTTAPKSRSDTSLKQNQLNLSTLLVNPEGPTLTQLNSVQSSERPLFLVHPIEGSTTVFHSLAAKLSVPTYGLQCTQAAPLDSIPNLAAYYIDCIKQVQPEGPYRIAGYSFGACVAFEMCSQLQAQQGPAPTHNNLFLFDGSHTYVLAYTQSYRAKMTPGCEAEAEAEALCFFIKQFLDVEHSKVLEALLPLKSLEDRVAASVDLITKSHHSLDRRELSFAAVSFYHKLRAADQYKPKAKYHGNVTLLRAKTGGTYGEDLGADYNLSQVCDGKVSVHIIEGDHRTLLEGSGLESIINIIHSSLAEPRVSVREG

In the case of `Oc1cc(Cl)ccc1Oc1ccc(Cl)cc1Cl`, in assay [1], the inhibition entry is “Dose-dependent effect”.
In the case of `C/C=C/C/C=C/CCC(=O)[C@H]1O[C@H]1C(N)=O`, in assay [2], the inhibition result was “Active”. The inhibition result in assay [3] is “Dose-dependent effect”.

(Values after ChEMBL document CHEMBL4421734, “Means and methods for treatment of early-onset parkinson''s disease” (2016).)
